Legend:
[1] = target: T1, LXRβ ligand-binding domain (Homo sapiens, UniProt P55055, DUP175-175); test: TR-FRETβ activity assay (NCoA3 coactivator peptide recruitment); type: biochemical; settings: TR-FRET, 1 μM 24(S)-25-epoxycholesterol prestimulation; read-out: FRETβ (EC50 range)
T1 construct: amino acids 156-461; NP009052; made in house; host or cells: E. coli
T1 sequence (P55055 with tags, fused parts or gaps DUP175-175 limits assumed): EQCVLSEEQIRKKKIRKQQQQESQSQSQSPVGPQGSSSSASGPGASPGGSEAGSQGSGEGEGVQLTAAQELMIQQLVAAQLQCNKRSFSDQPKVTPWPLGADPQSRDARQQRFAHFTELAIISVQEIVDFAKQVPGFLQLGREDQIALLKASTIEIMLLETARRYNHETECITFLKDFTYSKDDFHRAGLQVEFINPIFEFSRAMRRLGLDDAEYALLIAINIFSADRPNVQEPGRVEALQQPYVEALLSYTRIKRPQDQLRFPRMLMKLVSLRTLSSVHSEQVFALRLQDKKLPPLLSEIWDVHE
In short: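 Inverse agonism assessed by loss of coactivator recruitment, read as TR-FRET 665/615 nm after 1 h equilibration at 4 °C, in triplicate. Ten-point titration from 50 μM to 0.002 μM against LXRβ LBD (76 nM, GST fusion) prestimulated with 1 μM 24(S)-25-epoxycholesterol, with 400 nM NCoA3 peptide, pH 6.8. Sulfonyl acetic acids kept as 20 mM DMSO stocks with 100 mM TFA.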

full length (FL) LXRβ = target: T2, full length (FL) LXRβ (Homo sapiens, UniProt P55055, DUP175-175); test: LXR Gal4 reporter transient transfection assay (FL-M2H Gal4β); type: cell-based; settings: HEK293 cells, full length LXRβ; read-out: FL-M2H Gal4β (EC50 range)
T2 construct: the full length (FL) proteins of LXRα (amino acids 1-447); NP005684; NP009052; expressed in transfected cells; host or cells: HEK293
T2 sequence (P55055 with tags, fused parts or gaps DUP175-175): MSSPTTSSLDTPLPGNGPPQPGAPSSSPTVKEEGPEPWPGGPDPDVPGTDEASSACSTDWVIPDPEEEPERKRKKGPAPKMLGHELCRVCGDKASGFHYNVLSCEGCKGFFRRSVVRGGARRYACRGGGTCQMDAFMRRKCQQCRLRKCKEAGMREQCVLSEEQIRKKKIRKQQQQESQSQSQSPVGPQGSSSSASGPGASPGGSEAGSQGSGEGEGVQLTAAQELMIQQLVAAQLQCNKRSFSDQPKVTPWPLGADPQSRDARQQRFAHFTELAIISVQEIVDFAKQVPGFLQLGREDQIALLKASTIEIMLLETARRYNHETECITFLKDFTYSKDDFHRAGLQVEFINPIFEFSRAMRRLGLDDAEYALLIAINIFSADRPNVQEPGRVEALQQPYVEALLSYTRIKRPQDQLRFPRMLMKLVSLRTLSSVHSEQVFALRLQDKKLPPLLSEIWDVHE
In short: (§1)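 HEK293 cells were transiently co-transfected with NFkB activation-domain fusions of LXR (full length or LBD) and GAL4 DNA-binding-domain fusions of SRC1 (aa 552-887) or NCoR (aa 1906-2312), plus a GAL4-response-element Firefly luciferase reporter and a Renilla control. Compounds were added 4 h post-transfection, cells incubated 16 h, then dual luciferase read.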

full length (FL) LXRα = target: T3, full length (FL) LXRα (Homo sapiens, UniProt Q13133); test: LXR Gal4 reporter transient transfection assay (FL-M2H Gal4α); type: cell-based; settings: HEK293 cells, full length LXRα; read-out: FL-M2H Gal4α (EC50 range)
T3 construct: the full length (FL) proteins of LXRα (amino acids 1-447); NP005684; expressed in transfected cells; host or cells: HEK293
T3 sequence (Q13133 1-447): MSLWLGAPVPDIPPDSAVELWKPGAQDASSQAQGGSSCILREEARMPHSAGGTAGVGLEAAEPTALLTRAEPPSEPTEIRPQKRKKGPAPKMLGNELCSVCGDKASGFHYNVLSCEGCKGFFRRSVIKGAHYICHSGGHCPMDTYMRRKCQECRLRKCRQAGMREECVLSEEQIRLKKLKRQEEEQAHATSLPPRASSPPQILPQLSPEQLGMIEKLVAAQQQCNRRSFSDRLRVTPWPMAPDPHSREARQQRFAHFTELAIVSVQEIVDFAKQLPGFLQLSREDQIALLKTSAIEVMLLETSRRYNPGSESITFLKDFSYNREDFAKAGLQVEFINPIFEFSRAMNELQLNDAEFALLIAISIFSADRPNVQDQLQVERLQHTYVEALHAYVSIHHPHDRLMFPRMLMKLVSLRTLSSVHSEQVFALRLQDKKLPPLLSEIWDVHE
In short: as §1

Structure (SMILES) | EC50 [1] [µM] | EC50 (full length (FL) LXRβ) [µM] | EC50 (full length (FL) LXRα) [µM]
O=C(O)c1ccc(-c2cccc(-c3c(-c4ccsc4C(F)(F)F)c4cc(F)ccc4n3S(=O)(=O)c3ccc(C(F)F)cc3)c2)c(Cl)c1 [11/22] | < 0.1 | < 0.1 | < 0.1
Cc1n[nH]c(C)c1-c1c(-c2cccc(-c3ccc(C(=O)O)cc3Cl)c2)n(S(=O)(=O)c2ccc(C(F)F)cc2)c2ccc(F)cc12 [11/24] | 0.1 to 1 | 0.1 to 1 | 0.1 to 1
O=C(O)c1ccc(-c2cccc(-c3c(-c4cn[nH]c4C(F)(F)F)c4cc(F)ccc4n3S(=O)(=O)c3ccc(C(F)F)cc3)c2)c(Cl)c1 [11/25] | 0.1 to 1 | < 0.1 | 0.1 to 1
N#Cc1ccccc1-c1c(-c2cccc(-c3ccc(C(=O)O)c4c3OCO4)c2)n(S(=O)(=O)c2ccc(C(F)F)cc2)c2ccc(F)cc12 [11/28] | < 0.1 | < 0.1 | < 0.1
COc1cc(C(=O)O)ccc1-c1cccc(-c2c(-c3ccccc3C#N)c3cc(F)ccc3n2S(=O)(=O)c2ccc(C(F)F)cc2)c1 [11/29] | < 0.1 | < 0.1 | < 0.1
N#Cc1cc(C(=O)O)ccc1-c1cccc(-c2c(-c3ccccc3C#N)c3cc(F)ccc3n2S(=O)(=O)c2ccc(C(F)F)cc2)c1 [11/30] | < 0.1 | < 0.1 | < 0.1
N#Cc1ccccc1-c1c(-c2cccc(-c3ccc(C(=O)O)cc3F)c2)n(S(=O)(=O)c2ccc(C(F)F)cc2)c2ccc(F)cc12 [11/31] | < 0.1 | < 0.1 | < 0.1
N#Cc1ccccc1-c1c(-c2cccc(-c3ccc(C(=O)O)c(O)c3Cl)c2)n(S(=O)(=O)c2ccc(C(F)F)cc2)c2ccc(F)cc12 [11/32] | < 0.1 | < 0.1 | < 0.1
N#Cc1cccc(F)c1-c1c(-c2cccc(-c3ccc(C(=O)O)cc3Cl)c2)n(S(=O)(=O)c2ccc(C(F)F)cc2)c2ccc(F)cc12 [11/34] | < 0.1 | < 0.1 | < 0.1
Cc1cccc(C(F)F)c1-c1c(-c2cccc(-c3ccc(C(=O)O)cc3Cl)c2)n(S(=O)(=O)c2ccc(C(F)F)cc2)c2ccc(F)cc12 [11/38] | < 0.1 | < 0.1 | < 0.1
COc1cccnc1-c1c(-c2cccc(-c3ccc(C(=O)O)cc3Cl)c2)n(S(=O)(=O)c2ccc(C(F)F)cc2)c2ccc(F)cc12 [11/40] | 0.1 to 1 | < 0.1 | < 0.1
O=C(O)c1ccc(-c2cccc(-c3c(-c4ncccc4OC(F)F)c4cc(F)ccc4n3S(=O)(=O)c3ccc(C(F)F)cc3)c2)c(Cl)c1 [11/41] | < 0.1 | < 0.1 | < 0.1
N#CC1=C(c2c(-c3cccc(-c4ccc(C(=O)O)cc4Cl)c3)n(S(=O)(=O)c3ccc(C(F)F)cc3)c3ccc(F)cc23)CCCC1 [11/42] | > 10 | 0.1 to 1 | 0.1 to 1
O=C(O)c1ccc(-c2cccc(-c3c(-c4cccc5nncn45)c4cc(F)ccc4n3S(=O)(=O)c3ccc(C(F)F)cc3)c2)c(Cl)c1 [11/43] | 0.1 to 1 | 0.1 to 1 | 0.1 to 1
O=C(O)c1ccc(-c2cccc(-c3c(-c4cccc5c4OCO5)c4cc(F)ccc4n3S(=O)(=O)c3ccc(C(F)F)cc3)c2)c(Cl)c1 [11/44] | < 0.1 | < 0.1 | < 0.1
O=C(O)c1ccc(-c2cccc(-c3c(-c4cccc5nonc45)c4cc(F)ccc4n3S(=O)(=O)c3ccc(C(F)F)cc3)c2)c(Cl)c1 [11/45] | < 0.1 | < 0.1 | < 0.1

Structure (SMILES) | EC50 [1] [µM] | EC50 (full length (FL) LXRβ) [µM] | EC50 (full length (FL) LXRα) [µM]
COc1cc(-c2c(-c3cccc(-c4ccc(C(=O)O)cc4Cl)c3)n(S(=O)(=O)c3ccc(C(F)F)cc3)c3ccc(F)cc23)c2c(C#N)cnn2c1 [11/46] | < 0.1 | < 0.1 | < 0.1
Cn1cccc(-c2c(-c3cccc(-c4ccc(C(=O)O)cc4Cl)c3)n(S(=O)(=O)c3ccc(C(F)F)cc3)c3ccc(F)cc23)c1=O [11/47] | 0.1 to 1 | 0.1 to 1 | 0.1 to 1
N#Cc1cccc(C#N)c1-c1c(-c2cccc(-c3ccc(C(=O)O)c(F)c3F)c2)n(S(=O)(=O)c2ccc(C(F)F)cc2)c2ccc(F)cc12 [11/52] | < 0.1 | < 0.1 | < 0.1
N#Cc1cccc(C#N)c1-c1c(-c2cccc(-c3c(F)c(F)c(C(=O)O)c(F)c3F)c2)n(S(=O)(=O)c2ccc(C(F)F)cc2)c2ccc(F)cc12 [11/54] | < 0.1 | < 0.1 | < 0.1
N#Cc1cccc(C#N)c1-c1c(-c2cccc(-c3ccc(C(=O)O)cc3Cl)c2)n(S(=O)(=O)c2ccc(Cl)cc2)c2ccc(F)cc12 [11/55] | < 0.1 | < 0.1 | < 0.1
N#Cc1cccc(C#N)c1-c1c(-c2cccc(-c3ccc(C(=O)O)cc3Cl)c2)n(S(=O)(=O)c2ccc(C(F)F)cc2)c2ccccc12 [11/56] | < 0.1 | < 0.1 | < 0.1
N#Cc1sccc1-c1c(-c2cccc(-c3ccc(C(=O)O)cc3Cl)c2)n(S(=O)(=O)c2ccc(C(F)F)nc2)c2ccc(F)cc12 [11/57] | < 0.1 | < 0.1 | < 0.1
N#Cc1cccc(C#N)c1-c1c(-c2cccc(C34CCC(C(=O)O)(CC3)CC4)c2)n(S(=O)(=O)c2ccc(C(F)F)cc2)c2ccc(F)cc12 [11/58] | < 0.1 | < 0.1 | < 0.1
CC(O)(C(=O)O)c1ccc(-c2cccc(-c3c(-c4c(C#N)cccc4C#N)c4cc(F)ccc4n3S(=O)(=O)c3ccc(C(F)F)cc3)c2)cc1 (stereo not drawn) [11/59] | < 0.1 | < 0.1 | < 0.1
N#Cc1cccc(C#N)c1-c1c(-c2cccc([C@H]3CC[C@@H](C(=O)O)CC3)c2)n(S(=O)(=O)c2ccc(C(F)F)cc2)c2ccc(F)cc12 [11/61] | 0.1 to 1 | < 0.1 | < 0.1
N#Cc1cccc(C#N)c1-c1c(-c2cccc(-c3ccc(C(=O)O)cc3F)c2)n(S(=O)(=O)C2CCC(C(F)(F)F)CC2)c2ccc(F)cc12 (stereo not drawn) [11/64] | 0.1 to 1 | < 0.1 | < 0.1
N#Cc1cccc(C#N)c1-c1c(-c2cccc(-c3ccc(C(=O)O)cc3Cl)c2)n(S(=O)(=O)C2CC3CCC2C3)c2ccc(F)cc12 (stereo not drawn) [11/66] | 0.1 to 1 | < 0.1 | < 0.1
N#Cc1cncc(C#N)c1-c1c(-c2cccc(-c3ccc(C(=O)O)cc3Cl)c2)n(S(=O)(=O)c2ccc(C(F)F)cc2)c2ccc(F)cc12 [11/67] | 0.1 to 1 | < 0.1 | < 0.1
Cn1ccc(-c2c(-c3cccc(-c4ccc(C(=O)O)cc4Cl)c3)n(S(=O)(=O)c3ccc(C(F)F)cc3)c3ccc(F)cc23)c1C#N [11/68] | < 0.1 | < 0.1 | < 0.1
O=C(O)C1CC1c1cccc(-c2c(-c3c(Cl)cccc3Cl)c3cc(F)ccc3n2S(=O)(=O)c2ccc(C(F)F)cc2)c1 (stereo not drawn) [11/69] | < 0.1 | < 0.1 | < 0.1
Cc1ccc(S(=O)(=O)n2c(-c3cccc(-c4ccc(C(=O)O)c(C)c4Cl)c3)c(-c3ccsc3C#N)c3cc(F)ccc32)cc1 [12/1] | 0.1 to 1 | < 0.1 | < 0.1

Source: US11618747B2, “LXR modulators with bicyclic core moiety” (OrsoBio, Inc., priority 2018, dated 2023)
